Measured values from patent publication US10894784B2, “Heteroarylbenzimidazole compounds” (BAYER PHARMA AKTIENGESELLSCHAFT, priority 2015, dated 2021).

Each compound was assayed against TBK1 (Homo sapiens (Human), UniProt Q9UHD2) (assay: TBK1 low ATP kinase assay (in vitro assay 1)). Conditions: in vitro assay 1, read-out: TBK1 low ATP kinase assay IC50.
Chain of TBK1 (Q9UHD2 whole entry): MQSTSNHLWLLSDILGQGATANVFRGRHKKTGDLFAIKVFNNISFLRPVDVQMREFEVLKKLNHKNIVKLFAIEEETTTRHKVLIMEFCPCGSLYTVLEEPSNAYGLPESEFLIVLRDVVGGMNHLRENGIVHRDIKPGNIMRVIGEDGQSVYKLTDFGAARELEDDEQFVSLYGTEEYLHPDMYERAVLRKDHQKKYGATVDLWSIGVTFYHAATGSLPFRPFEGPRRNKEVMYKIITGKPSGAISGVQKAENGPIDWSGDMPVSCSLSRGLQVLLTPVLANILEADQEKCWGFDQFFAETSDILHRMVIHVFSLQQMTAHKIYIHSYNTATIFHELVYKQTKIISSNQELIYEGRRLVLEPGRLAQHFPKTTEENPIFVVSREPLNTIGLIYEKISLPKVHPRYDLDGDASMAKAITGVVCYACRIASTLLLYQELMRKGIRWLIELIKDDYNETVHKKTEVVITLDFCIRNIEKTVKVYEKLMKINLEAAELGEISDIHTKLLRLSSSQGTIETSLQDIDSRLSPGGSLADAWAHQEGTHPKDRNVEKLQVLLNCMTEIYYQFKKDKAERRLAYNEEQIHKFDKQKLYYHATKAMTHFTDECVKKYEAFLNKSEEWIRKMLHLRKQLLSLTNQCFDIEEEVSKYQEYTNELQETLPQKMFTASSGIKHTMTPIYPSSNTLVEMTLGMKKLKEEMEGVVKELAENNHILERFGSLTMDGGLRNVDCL
Format: biochemical
CC(C)Nc1ncnc(-c2ccc3nc(Nc4cc(CN5CCN(C(=O)C6CC6)CC5)ccn4)[nH]c3c2)c1F [Example 193.03, cyclopropyl(4-{[2-({6-[5-fluoro-6-(propan-2-ylamino)pyrimidin-4-yl]-1H-benzimidazol-2-yl}amino)pyridin-4-yl]methyl}piperazin-1-yl)methanone] gave an IC50 of 0.0178 µM.
O=C(CC(F)(F)F)N1CCN(Cc2ccnc(Nc3nc4ccc(-c5ncnc(NC6CCC6)c5F)cc4[nH]3)c2)CC1 [Example 194.02, 1-(4-{[2-({6-[6-(cyclobutylamino)-5-fluoropyrimidin-4-yl]-1H-benzimidazol-2-yl}amino)pyridin-4-yl]methyl}piperazin-1-yl)-3,3,3-trifluoropropan-1-one] was tested, and the IC50 was 0.0459 µM.
With O=C(C1CC1)N1CCN(Cc2ccnc(Nc3nc4ccc(-c5ncnc(NC6CCC6)c5F)cc4[nH]3)c2)CC1 [Example 194.03, (4-{[2-({6-[6-(cyclobutylamino)-5-fluoropyrimidin-4-yl]-1H-benzimidazol-2-yl}amino)pyridin-4-yl]methyl}piperazin-1-yl)(cyclopropyl)methanone] the IC50 was 0.0494 µM.
CC(C)(C)OC(=O)N1CCN(Cc2ccnc(Nc3nc4ccc(-c5ncnc(NCC6CC6)c5F)cc4[nH]3)c2)CC1 [Example 195.01, tert-butyl 4-({2-[(6-{6-[(cyclopropylmethyl)amino]-5-fluoropyrimidin-4-yl}-1H-benzimidazol-2-yl)amino]pyridin-4-yl}methyl)piperazine-1-carboxylate] showed an IC50 of 0.105 µM.
For O=C(CC(F)(F)F)N1CCN(Cc2ccnc(Nc3nc4ccc(-c5ncnc(NCC6CC6)c5F)cc4[nH]3)c2)CC1 [Example 195.02, 1-[4-({2-[(6-{6-[(cyclopropylmethyl)amino]-5-fluoropyrimidin-4-yl}1H-benzimidazol-2-yl)amino]pyridin-4-yl}methyl)piperazin-1-yl]-3,3,3-trifluoropropan-1-one], the IC50 was 0.0337 µM.
For O=C(C1CC1)N1CCN(Cc2ccnc(Nc3nc4ccc(-c5ncnc(NCC6CC6)c5F)cc4[nH]3)c2)CC1 [Example 195.03, cyclopropyl[4-({2-[(6-{6-[(cyclopropylmethyl)amino]-5-fluoropyrimidin-4-yl}-1H-benzimidazol-2-yl)amino]pyridin-4-yl}methyl)piperazin-1-yl]methanone], the IC50 was 0.0341 µM.
CN(C)c1nccnc1-c1ccc2nc(Nc3cc(CN4CCN(C(=O)CC(F)(F)F)CC4)ccn3)[nH]c2c1 [Example 196.02, 1-(4-{[2-({6-[3-(dimethylamino)pyrazin-2-yl]-1H-benzimidazol-2-yl}amino)pyridin-4-yl]methyl}piperazin-1-yl)-3,3,3-trifluoropropan-1-one] showed an IC50 of 1.83 µM.
Work on CN(C)c1nccnc1-c1ccc2nc(Nc3cc(CN4CCN(C(=O)C5CC5)CC4)ccn3)[nH]c2c1 [Example 196.03, cyclopropyl(4-{[2-({6-[3-(dimethylamino)pyrazin-2-yl]-1H-benzimidazol-2-yl}amino)pyridin-4-yl]methyl}piperazin-1-yl)methanone] yielded an IC50 of 1.42 µM.
With CC(C)(C)OC(=O)N1CCN(Cc2ccnc(Nc3nc4ccc(-c5cc(C6=CCOCC6)ncn5)cc4[nH]3)c2)CC1 [Example 198.01, tert-butyl 4-{[2-({6-[6-(3,6-dihydro-2H-pyran-4-yl)pyrimidin-4-yl]-1H-benzimidazol-2-yl}amino)pyridin-4-yl]methyl}piperazine-1-carboxylate] the IC50 was 0.0438 µM.
O=C(CC(F)(F)F)N1CCN(Cc2ccnc(Nc3nc4ccc(-c5cc(C6CCOCC6)ncn5)cc4[nH]3)c2)CC1 [Example 199.02, 3,3,3-trifluoro-1-(4-{[2-({6-[6-(tetrahydro-2H-pyran-4-yl)pyrimidin-4-yl]-1H-benzimidazol-2-yl}amino)pyridin-4-yl]methyl}piperazin-1-yl)propan-1-one] gave an IC50 of 0.0419 µM.
